Assay results taken from patent publication US9107926B2, “Mutant selectivity and combinations of a phosphoinositide 3-kinase inhibitor compound and chemotherapeutic agents for the treatment of cancer” (Genentech, Inc., priority 2012, dated 2015).

Assays:
H322 = test: CellTiter-Glo cell proliferation assay; format: cell-based; conditions: NCI-H322, Lung(NSCLC), WT
IPC298 = test: CellTiter-Glo cell proliferation assay; format: cell-based; conditions: Homo sapiens, IPC-298, Melanoma, NRAS Q61L
Calu-6 = test: CellTiter-Glo cell proliferation assay; format: cell-based; conditions: Homo sapiens, Lung(NSCLC), K-RAS
EBC-1 = test: CellTiter-Glo cell proliferation assay; format: cell-based; conditions: Homo sapiens, Lung(NSCLC), K-RAS
SF539 = test: CellTiter-Glo cell proliferation assay; format: cell-based; conditions: Homo sapiens, SF-539, Glioma, PTEN
FUOV1 = test: CellTiter-Glo cell proliferation assay; format: cell-based; conditions: Ovarian, WT
Procedure: (§1) Cell Culture Medium: RPMI or DMEM high glucose, 10% Fetal Bovine Serum, 2 mM L-Glutamine, P/S. Incubate O/N (overnight) at 37° C., 5% CO2.
(§2) Drug Addition to Cells, Cell Plate (1:10 dilution): Add 6 μl of media+compound directly to cells (54 μl of media on the cells already). Incubate 3 days at 37° C., 5% CO2 in an incubator that will not be opened often.
(§3) Day 5—Develop Plates, Thaw Cell Titer Glo Buffer at room temperature: Remove Cell Plates from 37° C. and equilibrate to room temperature for about 30 minutes. Add Cell Titer-Glo® Buffer to Cell Titer-Glo® Substrate (bottle to bottle). Add 30 μl Cell Titer-Glo® Reagent (Promega cat.#G7572) to each well of cells. Place on plate shaker for about 30 minutes. Read luminescence on Analyst HT Plate Reader (half second per well).

H650 = test: CellTiter-Glo cell proliferation assay; format: cell-based; conditions: Homo sapiens, NCI-H650, Lung(NSCLC), K-RAS
[1] = tested on: Endocrine-resistant MCF7-ARO cells; test: 4 day CellTiter-Glo assay in endocrine resistant cells; format: cell-based, human; conditions: obtained by letrozole dose escalation over about 4 months
H1781 = test: CellTiter-Glo cell proliferation assay; format: cell-based; conditions: NCI-H1781, Lung(NSCLC), PTEN
HCC-1143 = test: CellTiter-Glo cell proliferation assay; format: cell-based; conditions: Homo sapiens, HCC1143, Breast, WT
SKOV3 = test: CellTiter-Glo cell proliferation assay; format: cell-based; conditions: Homo sapiens, SK-OV-3, Ovarian, Kinase-HET.1047H > R, HET.350D > N
Procedure: as §1, §2, §3

SF268 = test: CellTiter-Glo cell proliferation assay; format: cell-based; conditions: Homo sapiens, SF-268, Glioma, WT
T47D = test: CellTiter-Glo cell proliferation assay; format: cell-based; conditions: Homo sapiens, Breast, Kinase-HET.1047H > R, HET.350D > N
Procedure: as §1, §2, §3

H2009 = test: CellTiter-Glo cell proliferation assay; format: cell-based; conditions: Homo sapiens, NCI-H2009, Lung(NSCLC), K-RAS
SW948 = test: CellTiter-Glo cell proliferation assay; format: cell-based; conditions: Homo sapiens, Colon, KRAS/HOM.542E > K
CAL120 = test: CellTiter-Glo cell proliferation assay; format: cell-based; conditions: Homo sapiens, CAL-120, Breast, WT
Procedure: as §1, §2, §3

ZR75-30 = test: CellTiter-Glo cell proliferation assay; format: cell-based; conditions: Homo sapiens, ZR-75-30, Breast, WT
ABC-1 = test: CellTiter-Glo cell proliferation assay; format: cell-based; conditions: Homo sapiens, Lung(NSCLC), WT
Caov3 = test: CellTiter-Glo cell proliferation assay; format: cell-based; conditions: Homo sapiens, Caov-3, Ovarian, WT
KP4x1 = test: CellTiter-Glo cell proliferation assay; format: cell-based; conditions: Pancreatic, K-RAS
HCC-70 = test: CellTiter-Glo cell proliferation assay; format: cell-based; conditions: Homo sapiens, HCC70, Breast, PTEN
[2] = tested on: SKOV3 ovarian tumor xenografts; test: In vivo mouse tumor xenograft efficacy; conditions: PO daily (QD), 21 day treatment period
U-118MG = test: CellTiter-Glo cell proliferation assay; format: cell-based; conditions: Homo sapiens, Glioma, PTEN
SW620 = test: CellTiter-Glo cell proliferation assay; format: cell-based; conditions: Homo sapiens, SW-620, Colon, K-RAS
H358 = test: CellTiter-Glo cell proliferation assay; format: cell-based; conditions: Homo sapiens, NCI-H358, Lung(NSCLC), K-RAS
EFM-192A = test: CellTiter-Glo cell proliferation assay; format: cell-based; conditions: Breast, HET.420C > R
22RV1 = test: CellTiter-Glo cell proliferation assay; format: cell-based; conditions: Homo sapiens, Prostate, Helical-HET.546Q > R
SW403 = test: CellTiter-Glo cell proliferation assay; format: cell-based; conditions: Homo sapiens, SW-403, Colon, KRAS/HET.546Q > K
MDA-MB-453 = test: CellTiter-Glo cell proliferation assay; format: cell-based; conditions: Homo sapiens, Breast, Kinase-HET.1047H > R, HET.350D > N
Cal 85-1 = test: CellTiter-Glo cell proliferation assay; format: cell-based; conditions: Homo sapiens, Breast, WT
SW1573 = test: CellTiter-Glo cell proliferation assay; format: cell-based; conditions: Homo sapiens, Lung(NSCLC), K-RAS
H82 = test: CellTiter-Glo cell proliferation assay; format: cell-based; conditions: Homo sapiens, NCI-H82, Lung(SC), PTEN
[3] = tested on: HCC1954.x1 breast tumor xenografts; test: In vivo mouse tumor xenograft efficacy; parameters: species or system mice; conditions: for % TGI@ day 21: QD x 21, PO
Procedure: The term uL means microliter.
Xenografts were initiated with cancer cells. […] Volume was calculated using the formula: […]

BT549 = test: CellTiter-Glo cell proliferation assay; format: cell-based; conditions: Homo sapiens, BT-549, Breast, PTEN
H522 = test: CellTiter-Glo cell proliferation assay; format: cell-based; conditions: Homo sapiens, NCI-H522, Lung(NSCLC), WT
[4] = tested on: SW48 isogenic cells; parental and PIK3CA knock-in mutants E545K and H1047R; test: western blot of cell lysates after 18 hours of GDC-0032 exposure; format: cell-based; conditions: lysates collected 18 hours post dosing
A549 = test: CellTiter-Glo cell proliferation assay; format: cell-based; conditions: Homo sapiens, Lung(NSCLC), K-RAS
PI3K alpha E545K mutant = PI3K alpha E545K mutant (Homo sapiens, UniProt P42336, E545K); conditions: relative to PI3K alpha
Procedure: After an incubation time of 30 minutes at room temperature, the reactions were stopped by the addition of GRP-1 and PIP3-TAMRA probe (Echelon-Inc., Salt Lake City, Utah.) 100 nM and 5 nM final concentrations respectively. Read with standard cut-off filters for the rhodamine fluorophore (λex=530 nm; λem=590 nm) in 384-well black low volume Proxiplates® (PerkinElmer, Wellesley, Mass.) Fluorescence polarization values were plotted as a function of the protein concentration. EC50 values were obtained by fitting the data to a four-parameter equation using KaleidaGraph® software (Synergy software, Reading, Pa.). This experiment also establishes the appropriate protein concentration to use in subsequent competition experiments with inhibitors.
After an incubation time of 30 minutes at room temperature, the reactions were stopped by the addition of GRP-1 and PIP3-TAMRA probe (Echelon-Inc., Salt Lake City, Utah.) 100 nM and 5 nM final concentrations respectively.
The compound was serially diluted in 100% DMSO. The kinase reaction was incubated for 1 h at room temperature, and the reaction was terminated by the addition of PBS. IC50 values were subsequently determined using sigmoidal dose-response curve fit (variable slope).

SW1783 = test: CellTiter-Glo cell proliferation assay; format: cell-based; conditions: Homo sapiens, Glioma, PTEN
H838 = test: CellTiter-Glo cell proliferation assay; format: cell-based; conditions: Homo sapiens, NCI-H838, Lung(NSCLC), WT
Procedure: as §1, §2, §3

Sequence of PI3K alpha E545K mutant (P42336 whole entry E545K): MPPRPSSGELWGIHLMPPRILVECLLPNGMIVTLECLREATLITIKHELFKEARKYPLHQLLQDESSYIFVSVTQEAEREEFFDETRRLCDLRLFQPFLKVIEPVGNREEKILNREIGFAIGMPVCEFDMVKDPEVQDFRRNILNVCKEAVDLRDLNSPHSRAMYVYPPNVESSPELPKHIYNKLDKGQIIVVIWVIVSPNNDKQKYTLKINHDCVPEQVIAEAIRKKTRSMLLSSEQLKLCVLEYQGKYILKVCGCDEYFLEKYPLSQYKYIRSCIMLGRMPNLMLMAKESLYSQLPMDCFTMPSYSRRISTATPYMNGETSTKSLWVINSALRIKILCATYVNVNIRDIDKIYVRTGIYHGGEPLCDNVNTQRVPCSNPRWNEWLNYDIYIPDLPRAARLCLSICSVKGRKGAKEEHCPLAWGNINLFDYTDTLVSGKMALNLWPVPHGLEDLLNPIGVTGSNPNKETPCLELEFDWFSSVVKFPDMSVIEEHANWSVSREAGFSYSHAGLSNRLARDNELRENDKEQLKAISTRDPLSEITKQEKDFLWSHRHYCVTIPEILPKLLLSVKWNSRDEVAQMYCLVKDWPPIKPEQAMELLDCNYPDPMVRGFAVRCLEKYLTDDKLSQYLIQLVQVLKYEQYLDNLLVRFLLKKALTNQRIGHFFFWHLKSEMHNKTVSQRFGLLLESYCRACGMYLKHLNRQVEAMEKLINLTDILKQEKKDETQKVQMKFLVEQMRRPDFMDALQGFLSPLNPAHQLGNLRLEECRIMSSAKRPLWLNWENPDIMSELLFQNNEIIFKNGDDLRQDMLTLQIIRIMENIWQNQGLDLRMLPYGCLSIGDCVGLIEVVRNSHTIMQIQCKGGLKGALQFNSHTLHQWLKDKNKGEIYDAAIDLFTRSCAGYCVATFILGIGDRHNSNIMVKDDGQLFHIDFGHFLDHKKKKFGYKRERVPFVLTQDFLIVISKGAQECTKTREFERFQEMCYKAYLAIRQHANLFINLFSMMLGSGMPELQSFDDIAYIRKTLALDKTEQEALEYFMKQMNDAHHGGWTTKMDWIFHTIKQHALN
Sequence of PI3K alpha E545K mutant (P27986 whole entry partner): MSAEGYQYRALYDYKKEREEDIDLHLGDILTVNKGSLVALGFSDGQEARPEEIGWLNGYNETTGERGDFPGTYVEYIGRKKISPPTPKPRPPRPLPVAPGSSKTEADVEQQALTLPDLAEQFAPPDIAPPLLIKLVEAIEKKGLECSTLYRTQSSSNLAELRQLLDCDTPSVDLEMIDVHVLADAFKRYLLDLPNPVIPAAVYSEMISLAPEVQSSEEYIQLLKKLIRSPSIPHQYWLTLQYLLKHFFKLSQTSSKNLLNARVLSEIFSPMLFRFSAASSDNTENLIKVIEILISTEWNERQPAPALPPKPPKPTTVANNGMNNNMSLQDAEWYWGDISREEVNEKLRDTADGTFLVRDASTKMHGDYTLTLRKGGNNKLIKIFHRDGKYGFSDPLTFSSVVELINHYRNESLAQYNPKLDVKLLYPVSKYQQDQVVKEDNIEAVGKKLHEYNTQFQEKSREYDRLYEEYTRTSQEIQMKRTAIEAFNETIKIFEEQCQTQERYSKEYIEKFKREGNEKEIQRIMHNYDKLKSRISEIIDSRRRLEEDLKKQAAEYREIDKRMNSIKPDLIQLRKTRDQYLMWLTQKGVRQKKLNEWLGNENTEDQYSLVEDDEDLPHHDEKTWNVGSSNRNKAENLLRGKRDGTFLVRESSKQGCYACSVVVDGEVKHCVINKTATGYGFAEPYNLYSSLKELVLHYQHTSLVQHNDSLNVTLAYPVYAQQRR

## Cc1nc(-c2cn3c(n2)-c2ccc(-c4cnn(C(C)(C)C(N)=O)c4)cc2OCC3)n(C(C)C)n1 [GDC-0032, 2-(4-(2-(1-isopropyl-3-methyl-1H-1,2,4-triazol-5-yl)-5,6-dihydrobenzo[f]imidazo[1,2-d][1,4]oxazepin-9-yl)-1H-pyrazol-1-yl)-2-methylpropanamide]
H322
  EC50: 280 nM
IPC298
  EC50: 10000 nM
Calu-6
  EC50: 10000 nM
EBC-1
  EC50: 1660 nM
SF539
  EC50: 1880 nM
FUOV1
  EC50: 62 nM
H650
  EC50: 10000 nM
[1]
  sensitivity of endocrine-resistant cells: sensitive to GDC-0032
H1781
  EC50: 561 nM
HCC-1143
  EC50: 2970 nM
SKOV3
  EC50: 76 nM
SF268
  EC50: 1070 nM
T47D
  EC50: 45 nM
H2009
  EC50: 710 nM
SW948
  EC50: 62 nM
CAL120
  EC50: 3840 nM
ZR75-30
  EC50: 21 nM
ABC-1
  EC50: 234 nM
Caov3
  EC50: 4780 nM
KP4x1
  EC50: 2940 nM
HCC-70
  EC50: 43 nM
[2]
  tumor volume change: dose-dependent decrease in tumor volume
U-118MG
  EC50: 3200 nM
SW620
  EC50: 10000 nM
H358
  EC50: 220 nM
EFM-192A
  EC50: 101 nM
22RV1
  EC50: 50 nM
SW403
  EC50: 143 nM
MDA-MB-453
  EC50: 44 nM
Cal 85-1
  EC50: 520 nM
SW1573
  EC50: 285 nM
H82
  EC50: 10000 nM
[3]; 1.56 mg/kg
  % TGI@ day 21: 53%
[3]; 3.125 mg/kg
  % TGI@ day 21: 79%
[3]; 6.25 mg/kg
  % TGI@ day 21: 98%
[3]; 12.5 mg/kg
  % TGI@ day 21: 118%
[3]; 25 mg/kg
  % TGI@ day 21: 138%
[3]; daily dosing, end of dosing on day 21
  maximum TGI: 138%
[3]; doses of 12.5 and 25 mg/kg
  tumor response: Tumor regressions were observed
BT549
  EC50: 1200 nM
H522
  EC50: 10000 nM
[4]
  apoptosis induction (autoradiograms of lysates): induces apoptosis in cells harboring PI3K mutations at very low compound concentrations
A549
  EC50: 906 nM
PI3K alpha E545K mutant
  PI3K alpha E545K mutant: 0.4x
SW1783
  EC50: 3110 nM
H838
  EC50: 3100 nM
